# From US20260144769A1, “4-PHENYLBUTYRATE RESTORED GABA UPTAKE AND REDUCED SEIZURES IN SLC6A1 VARIANT-MEDIATED DISORDERS” (Vanderbilt University, priority 2022, published 2026)
# How the values were obtained:
# [1] = tested on: SLC6A1 gene expression; experiment: RT-qPCR of SLC6A1 gene expression, mouse whole-brain tissue; type: in vivo; details: wild-type and SLC6A1^+/S295L mice; PBA for 7 days; whole-brain RNA
# Excerpt: FIGS. 14A-B show RT-qPCR data from a cohort of nine wild-type mice (FIG. 14A) and seven SLC6A1^+/S295L mice (FIG. 14B). […] Total RNA was extracted from mouse whole-brain tissue.
# [2] = tested on: GAT-1; experiment: 3H GABA uptake, cultured cortical neurons from the knockin mice; type: cell-based, mouse; details: PBA 2 mM, 24 hr
# Description: FIGS. 7C-D show neurons directly cultured in the 35-mm^2 dishes and GABA uptake was evaluated between day 15-17 days after culture. CI-966 (50 μM) and NNC711 (35 μM) was applied 30 min before preincubation and removed during preincubation. GAT-3 inhibitor SNAP5114 (30 μM) was applied during GABA uptake to make sure only GAT-1 activity was measured. The wildtype astrocytes (FIGS. 7A-B) or cortical neurons (FIGS. 7C-D) of either SLC6A1^+/A288V or SLC6A1^+/S295L were taken as 1. The cultures derived from each mutant mouse was compared to the culture from its own wildtype littermates. […] The wildtype data were pooled from two mouse lines. […] The graph represents the relative GABA uptake level normalized to cells of its own genotype treated with DMSO. CI-966 (50 μM) or NNC-711 (35 μM) was applied 30 min before preincubation and removed during preincubation. Two-way analysis of variance followed by Bonferroni multiple comparison test was used. Values were expressed as mean±S.E.M. In FIG. 7A and FIG. 7C, ***p<0.001 vs. wt; § § § P<0.001 S295L vs. A288V. […]
# Briefly, cells were cultured in […] dishes for 3 days before the GABA uptake experiment in DMEM with 10% fetal bovine serum and 1% penicillin/streptomycin. […] Glacial acetic acid was added, and lysates were then determined on a liquid scintillator with QuantaSmart. […]
structure (smiles),measurement,setting,value
"O=C(O)CCCc1ccccc1 [PBA, 4-phenylbutyric acid]","SLC6A1 gene expression, treated vs. untreated mice",[1],no significant difference
same,GABA uptake in PBA treated cells,[2],upregulation
